Results: patent US20140242093A1, “METHODS AND COMPOSITIONS FOR MODULATING THE INNATE IMMUNE RESPONSE AND/OR MYOGENESIS IN A MAMMALIAN SUBJECT” (FRED HUTCHINSON CANCER RESEARCH CENTER, priority 2011, published 2014)

Tested on: control human primary myoblasts
Experiment: Expression microarray of primary myoblasts transduced with lentivirus carrying DUX4-fl, DUX4-s or GFP
Procedure: Primary human myoblasts were collected and cultured as previously described (Snider et al., 2010). Primary myoblasts were maintained at or below 70% confluency for proliferation. For differentiation, cells were allowed to reach 95-100% confluency in growth medium. Once confluency was reached, the cells were changed to differentiation medium (F10 media supplemented with 1% horse serum, 10 μg/mL insulin, and 10 μg/mL transferrin, penicillin/streptomycin) and maintained for 4 days. Human RD cells were grown in DMEM in 10% bovine calf serum (Hyclone) and penicillin/streptomycin. The primary myoblasts were transduced with lentivirus carrying DUX-fl, DUX4- or GFP (MOI=15).
Expression microarrays were performed on the transduced cells at 24 hours after transduction as follows. […] Samples were analyzed by Illumina Human Whole Genome microarrays. Probe intensities were corrected, normalized, and summarized by the Lumi package of Bioconductor (Du et al., 2008). Differentially expressed genes were identified by the LIMMA package of Bioconductor (Wettenhall and Smyth, 2004). Gene set enrichment analysis (GSEA) was performed using the Bioconductor GOstats package (Falcon and Gentleman, 2007).

DUX4-fl: full-length DUX4 protein (SEQ ID NO:110), expressed from lentiviral or pCS2 vectors or in vitro translated
LOC728450 expression fc (Refseq XM_001131473.2): 2.474
RFNG fc (Refseq XM_001132711.1): −1.116
LOC732416 expression fc (Refseq XM_001133386.1): 2.329
THOC4 expression fc (Refseq XM_001134346.1): 4.035
PRAMEF15 expression fc (Refseq XM_001713659.1): 7
LOC100131392 expression fc (Refseq XM_001713681.1): 6.976
LOC100132564 expression fc (Refseq XM_001713808.1): 3.588
LOC391769 expression fc (Refseq XM_001713901.1): 8.19
PRAMEF13 expression fc (Refseq XM_001713933.1): 7.422
PRAMEF11 expression fc (Refseq XM_001714028.1): 5.94
fc of LOC285296 (expression array) (Refseq XM_001714301.1): −1.042
LOC100133588 expression fc (Refseq XM_001714755.1): 2.2
CTGLF7 expression fc (Refseq XM_001714786.1): 3.437
LOC100129630 expression fc (Refseq XM_001714940.1): 1.871
LOC391763 expression fc (Refseq XM_001715080.1): 1.963
LOC642446 expression fc (Refseq XM_001717781.1): 3.101
LOC100133446 expression fc (Refseq XM_001717965.1): 4.635
LOC100129165 fc (Refseq XM_001718314.1): −1.161
LOC643336 expression fc (Refseq XM_001718563.1): 1.934
LOC100129053 expression fc (Refseq XM_001718702.1): 2.724
LOC100130652 expression fc (Refseq XM_001719052.1): 3.33
RFPL4A expression fc (Refseq XM_001719234.1): 4.348
LOC728809 fc (Refseq XM_001719546.1): −1.14
LOC100134199 expression fc (Refseq XM_001719549.1): 8.048
PNMA6B expression fc (Refseq XM_001721351.1): 3.603
LOC100133984 expression fc (Refseq XM_001723079.1): 6.204
LOC649330 expression fc (Refseq XM_001723218.1): 3.101
LOC100128202 expression fc (Refseq XM_001723719.1): 3.711
LOC100130311 expression fc (Refseq XM_001724111.1): 2.912
LOC100131539 expression fc (Refseq XM_001724873.1): 4.629
LOC100134006 expression fc (Refseq XM_001725030.1): 7.087
LOC730167 expression fc (Refseq XM_001726158.1): 3.656
LOC100129681 expression fc (Refseq XM_001726834.1, cultured human skeletal muscle): −4.075
LOC651709 expression fc (Refseq XM_001732813.1): 2.304
LOC727828 expression fc (Refseq XR_015137.1): 3.054
LOC728060 fc (Refseq XR_015272.2): −1.095
LOC732393 expression fc (Refseq XR_015873.1): 4.637
MGC40489 expression fc (Refseq XR_016048.1): 2.542
LOC643263 expression fc (Refseq XR_016355.1): 8.345
LOC441081 expression fc (Refseq XR_017029.1): 3.764
LOC647366 expression fc (Refseq XR_018122.1): 3.783
LOC440041 expression fc (Refseq XR_018122.2): 3.895
LOC647827 expression fc (Refseq XR_018213.1): 4.053
LOC399988 expression fc (Refseq XR_018287.2): 1.966
LOC650215 fc (Refseq XR_018889.1): −1.139
fc of RBMS2P (expression array) (Refseq XR_019556.2): −0.4507
LOC642148 expression fc (Refseq XR_019607.1): 6.851
LOC650236 expression fc (Refseq XR_036872.1): 2.915
LOC100134322 expression fc (Refseq XR_037416.1): 2.488
LOC730974 expression fc (Refseq XR_037751.1): 7.715
LOC643445 expression fc (Refseq XR_038080.1): 8.25
LOC729516 expression fc (Refseq XR_038445.1): 5.955
LOC340970 expression fc (Refseq XR_038494.1): 8.316
LOC645381 expression fc (Refseq XR_038557.1): 2.089
LOC728429 expression fc (Refseq XR_038921.1): 2.178
LOC645638 fc (Refseq XR_040455.1): −1.128
LOC400464 expression fc (Refseq XR_041115.1): 2.831
TRIM53 expression fc (Refseq XR_041244.1): 4.778
LOC729009 expression fc (Refseq XR_042330.1, cultured human skeletal muscle): −2.654
number of genes increased 8-fold or more (Table 1): 164 genes
number of genes increased 16-fold or more (Table 1): 107 genes
ABCC3 expression fc (cultured human skeletal muscle): −1.491
ADM expression fc (cultured human skeletal muscle): −1.619
AGTRAP expression fc (cultured human skeletal muscle): −1.467
AHNAK expression fc (cultured human skeletal muscle): −1.441
ANGPTL2 expression fc (cultured human skeletal muscle): −1.893
ANKFY1 expression fc (cultured human skeletal muscle): −1.396
APOL3 expression fc (cultured human skeletal muscle): −1.548
ARHGEF19 expression fc (cultured human skeletal muscle): −1.4
ARID3A expression fc (cultured human skeletal muscle): −1.573
ASNS expression fc (cultured human skeletal muscle): −1.454
ATF5 expression fc (cultured human skeletal muscle): −1.826
ATL3 expression fc (cultured human skeletal muscle): −1.455
BHLHB2 expression fc (cultured human skeletal muscle): −1.43
BTG2 expression fc (cultured human skeletal muscle): −1.573
BTN3A2 expression fc (cultured human skeletal muscle): −1.759
BTN3A3 expression fc (cultured human skeletal muscle): −1.62
C1RL expression fc (cultured human skeletal muscle): −1.627
C4orf18 expression fc (cultured human skeletal muscle): −1.781
C8orf13 expression fc (cultured human skeletal muscle): −1.412
C14orf4 expression fc (cultured human skeletal muscle): −1.476
C18orf56 expression fc (cultured human skeletal muscle): −1.619
CA9 expression fc (cultured human skeletal muscle): −1.526
CABC1 expression fc (cultured human skeletal muscle): −1.494
CABYR expression fc (cultured human skeletal muscle): −1.758
CCDC8 expression fc (cultured human skeletal muscle): −1.453
CEBPD expression fc (cultured human skeletal muscle): −1.521
CLDN15 expression fc (cultured human skeletal muscle): −1.554
CNTNAP1 expression fc (cultured human skeletal muscle): −1.744
COL8A1 expression fc (cultured human skeletal muscle): −1.527
CRISPLD2 expression fc (cultured human skeletal muscle): −1.752
CSF3 expression fc (cultured human skeletal muscle): −1.626
CYGB expression fc (cultured human skeletal muscle): −1.398
CYP26B1 expression fc (cultured human skeletal muscle): −1.461
CYP27A1 expression fc (cultured human skeletal muscle): −1.6
DAB2 expression fc (cultured human skeletal muscle): −1.807
DCN expression fc (cultured human skeletal muscle): −1.673
DDB2 expression fc (cultured human skeletal muscle): −1.408
DDIT4 expression fc (cultured human skeletal muscle): −1.522
DDX60L expression fc (cultured human skeletal muscle): −1.638
DKFZp451A211 expression fc (cultured human skeletal muscle): −1.833
DNAJB2 expression fc (cultured human skeletal muscle): −1.488
DUSP10 expression fc (cultured human skeletal muscle): −1.39
ERAP2 expression fc (cultured human skeletal muscle): −1.605
ESPNL expression fc (cultured human skeletal muscle): −1.567
FADS1 expression fc (cultured human skeletal muscle): −1.845
FAM110B expression fc (cultured human skeletal muscle): −1.675
FAM175A expression fc (cultured human skeletal muscle): −1.54
FHL2 expression fc (cultured human skeletal muscle): −1.58
FILIP1L expression fc (cultured human skeletal muscle): −1.784
FKBP5 expression fc (cultured human skeletal muscle): −1.758
FOXQ1 expression fc (cultured human skeletal muscle): −1.432
FPR1 expression fc (cultured human skeletal muscle): −1.603
FST expression fc (cultured human skeletal muscle): −1.812
FUCA1 expression fc (cultured human skeletal muscle): −1.615
GALK1 expression fc (cultured human skeletal muscle): −1.411
GALNTL2 expression fc (cultured human skeletal muscle): −1.834
GAS1 expression fc (cultured human skeletal muscle): −1.732
GBP4 expression fc (cultured human skeletal muscle): −1.478
GFPT2 expression fc (cultured human skeletal muscle): −1.612
GPX8 expression fc (cultured human skeletal muscle): −1.606
GRINA expression fc (cultured human skeletal muscle): −1.427
GSDMD expression fc (cultured human skeletal muscle): −1.763
HAS2 expression fc (cultured human skeletal muscle): −1.679
HCG4 expression fc (cultured human skeletal muscle): −1.651
HES4 expression fc (cultured human skeletal muscle): −1.751
HLA-C expression fc (cultured human skeletal muscle): −1.788
HLA-H expression fc (cultured human skeletal muscle): −1.798
HOXC6 expression fc (cultured human skeletal muscle): −1.539
ID3 expression fc (cultured human skeletal muscle): −1.627
IDH3B expression fc (cultured human skeletal muscle): −1.542
IFIT5 expression fc (cultured human skeletal muscle): −1.645
IFITM2 expression fc (cultured human skeletal muscle): −1.713
IGFBP5 expression fc (cultured human skeletal muscle): −1.441
IHPK3 expression fc (cultured human skeletal muscle): −1.859
IL32 expression fc (cultured human skeletal muscle): −1.681
IMPA2 expression fc (cultured human skeletal muscle): −1.437
IRAK2 expression fc (cultured human skeletal muscle): −1.447
IRAK3 expression fc (cultured human skeletal muscle): −1.5
ISCU expression fc (cultured human skeletal muscle): −1.547
ITPRIP expression fc (cultured human skeletal muscle): −1.763
KIAA1618 expression fc (cultured human skeletal muscle): −1.843
KLF6 expression fc (cultured human skeletal muscle): −1.659
KRT17 expression fc (cultured human skeletal muscle): −1.626
LAP3 expression fc (cultured human skeletal muscle): −1.552
LIMA1 expression fc (cultured human skeletal muscle): −1.463
LOC387763 expression fc (cultured human skeletal muscle): −1.46
LOC389386 expression fc (cultured human skeletal muscle): −1.521
LOC392437 expression fc (cultured human skeletal muscle): −1.674
LOC653879 expression fc (cultured human skeletal muscle): −1.416
LOC728431 expression fc (cultured human skeletal muscle): −1.44
MAMDC2 expression fc (cultured human skeletal muscle): −1.858
MAOA expression fc (cultured human skeletal muscle): −1.71
MCEE expression fc (cultured human skeletal muscle): −1.398
MGC16121 expression fc (cultured human skeletal muscle): −1.828
MIOS expression fc (cultured human skeletal muscle): −1.485
MLPH expression fc (cultured human skeletal muscle): −1.788
MMP3 expression fc (cultured human skeletal muscle): −1.509
MOCOS expression fc (cultured human skeletal muscle): −1.716
MOV10 expression fc (cultured human skeletal muscle): −1.658
MSC expression fc (cultured human skeletal muscle): −1.605
MSI2 expression fc (cultured human skeletal muscle): −1.763
